The subject of data set [1] is P. falciparum NF54. The data set is described as follows: In vitro microplate 3H-hypoxanthine incorporation assay against P. falciparum NF54. Type of data set: cell-based. The conditions noted are these: Plasmodium falciparum. On the procedure: (§1) Compounds were tested for their activities against Plasmodium falciparum NF54 (sensitive to chloroquine) and Trypanosoma brucei rhodesiense STIB900, via serial dilution assays. Furthermore, selected compounds were tested against the K1 strain of Plasmodium falciparum (resistant against chloroquine, sulfadoxine and pyrimethamine). Their cytotoxicity was determined with rat skeletal myoblasts (L-6 cells).
(§2) In vitro activity against erythrocytic stages of P. falciparum was determined using a ^3H-hypoxanthine incorporation assay using the drug sensitive NF54 strain [27] or the chloroquine- and pyrimethamine-resistant K1 strain [28]. Compounds were dissolved in DMSO at 10 mg/mL and further diluted in medium before being added to parasite cultures incubated in RPMI 1640 medium without hypoxanthine, supplemented with HEPES (5.94 g/L), NaHCO3 (2.1 g/L), neomycin (100 U/mL), Albumax® (5 g/L) and washed human red cells A+ at 2.5% haematocrit (0.3% parasitaemia). Serial drug dilutions of eleven 3-fold dilution steps covering a range from 100 to 0.002 μg/mL were prepared. The 96-well plates were incubated in a humidified atmosphere at 37 °C; 4% CO2, 3% O2, 93% N2. After 48 h, 0.05 mL of ^3H-hypoxanthine (= 0.5 μCi) was added to each well of the plate. The plates were incubated for a further 24 h under the same conditions. The plates were then harvested with a Betaplate™ cell harvester (Wallac, Zurich, Switzerland), and the red blood cells transferred onto a glass fibre filter then washed with distilled water. The dried filters were inserted into a plastic foil with 10 mL of scintillation fluid, and counted in a Betaplate™ liquid scintillation counter (Wallac, Zurich, Switzerland). IC50 values were calculated from sigmoidal inhibition curves by linear regression using Microsoft Excel. Chloroquine (Sigma C6628) was used as control.

The subject of data set [2] is T. brucei rhodesiense STIB900. The data set is described as follows: In vitro microplate resazurin assay against T. brucei rhodesiense. The conditions noted are these: Trypanosoma brucei, read-out: T. brucei rhodesiense STIB900 IC50. In kind it is cell-based. How it is done: as §1
Minimum essential medium (50 µL) supplemented with 25 mM HEPES, 1g/L additional glucose, 1% MEM non-essential amino acids (100×), 0.2 mM 2-mercaptoethanol, 1mM Na-pyruvate and 15% heat-inactivated horse serum was added to each well of a 96-well microtiter plate. Serial drug dilutions of eleven 3-fold dilution steps covering a range from 100 to 0.002 μg/mL were prepared. Then 4 × 10^3 bloodstream forms of T. b. rhodesiense STIB 900 in 50 µL was added to each well and the plate incubated at 37 °C under a 5 % CO2 atmosphere for 70 h. Next, 10 µL resazurin solution (resazurin, 12.5 mg in 100 mL double-distilled water) was added to each well and incubation continued for a further 2–4 h. Then the plates were read with a Spectramax Gemini XS microplate fluorometer (Molecular Devices Cooperation, Sunnyvale, CA, USA) using an excitation wave length of 536 nm and an emission wave length of 588 nm. Data were analyzed with the graphic programme Softmax Pro (Molecular Devices Cooperation, Sunnyvale, CA, USA), which calculated IC50 values by linear regression and 4-parameter logistic regression from the sigmoidal dose inhibition curves. Melarsoprol (Arsobal Sanofi-Aventis, received from WHO) was used as control.
In general terms: Resazurin is reduced to fluorescent resorufin, in cell work by metabolically active cells.

Data set [3] can be described thus: in vitro. The conditions noted are these: rat. On the procedure:
as §1
Assays were performed in 96-well microtiter plates, each well containing 0.1 mL of RPMI 1640 medium supplemented with 1% L-glutamine (200 mM) and 10% fetal bovine serum, and 4000 L-6 cells (a primary cell line derived from rat skeletal myoblasts, ATCC CRL-1458™). Serial drug dilutions of eleven 3-fold dilution steps covering a range from 100 to 0.002 μg/mL were prepared. After 70 h of incubation the plates were inspected under an inverted microscope to assure growth of the controls and sterile conditions. Then, 0.01 mL resazurin solution (resazurin, 12.5 mg in 100 mL double-distilled water) was added to each well and the plates incubated for another 2 h. The plates were read with a Spectramax Gemini XS microplate fluorometer (Molecular Devices Cooperation, Sunnyvale, CA, USA) using an excitation wave length of 536 nm and an emission wave length of 588 nm. The IC50 values were calculated by linear regression from the sigmoidal dose inhibition curves using SoftmaxPro software (Molecular Devices Cooperation, Sunnyvale, CA, USA). Podophyllotoxin (Sigma P4405) was used as control.

Data set [4] deals with P. falciparum K1. As to the kind of experiment: In vitro microplate 3H-hypoxanthine incorporation assay against P. falciparum K1. Type of data set: cell-based, Plasmodium falciparum. On the procedure: as §1, §2
Setting [5] is: NF54 strain, sensitive to chloroquine and pyrimethamine, average of four determinations, read-out: P. falciparum NF54 IC50.
Where [6] appears, read: bloodstream forms, average of four determinations.
[7] abbreviates: Plasmodium falciparum, K1, K1 strain, resistant to chloroquine, sulfadoxine and pyrimethamine, average of four determinations, read-out: P. falciparum K1 IC50.
Setting [8] is: K1 strain, resistant to chloroquine, sulfadoxine and pyrimethamine, average of four determinations, read-out: P. falciparum K1 IC50.

Data on 18 molecules can be found in publication PMC9821907, “Synthesis and Antiprotozoal Activity of Azabicyclo-Nonane Pyrimidine Hybrids” (Molecules, 2022).

Where two headings read alike, the source gives them in different places.

Broadly, the IC50 is the concentration needed to halve the response being measured.

For the molecule `Cc1cc(N2CCC3(N4CCCCC4)C[C@H](c4ccccc4)C2[C@@H](c2ccccc2)C3)nc(N2CCCCC2)n1` (racemic) [Compound 21, rac-(7R,8R)-2-[6-methyl-2-(piperidin-1-yl)pyrimidin-4-yl]-7,8-diphenyl-5-(piperidin-1-yl)-2-azabicyclo[3.2.2]nonane], the results for the IC50 in data set [1] (setting [5]) and in data set [2] (setting [6]) were 4700 ± 1180 nM and 8720 ± 4200 nM, respectively. The same molecule came in with a concentration for half-maximal inhibition (IC50) at 72 h in data set [3] of 104000 ± 27000 nM.
Turning to `Cc1cc(N2CC3C(c4ccccc4)CC(N4CCCCC4)(CC3c3ccccc3)C2)nc(N2CCCC2)n1` (racemic) [Compound 19, rac-(7R,8R)-3-[6-methyl-2-(pyrrolidin-1-yl)pyrimidin-4-yl]-6,9-diphenyl-1-(piperidin-1-yl)-3-azabicyclo[3.2.2]nonane], the concentration for half-maximal inhibition (IC50) in data set [1] (setting [5]) was found to be 5290 ± 134 nM; in data set [2] (setting [6]), 3160 ± 1060 nM; in data set [4] (setting [7]), 694 ± 268 nM. In addition, in data set [3], the concentration for half-maximal inhibition (IC50) at 72 h amounted to 58400 ± 22900 nM.
Turning to `Cc1cc(N2CC3C(c4ccccc4)CC(N4CCCC4)(CC3c3ccccc3)C2)nc(N)n1` (racemic) [Compound 8], the results for the IC50 in data set [1] (setting [5]) and in data set [2] (setting [6]) were 62 ± 1 nM and 322 ± 151 nM, respectively. In data set [3], this molecule gave a 50% inhibitory concentration (IC50) at 72 h of 4480 ± 1440 nM.
Turning to `Nc1cc(N2CCC3(N4CCCCC4)CC(c4ccccc4)C2C(c2ccccc2)C3)nc(N)n1` (racemic) [Compound 9, rac-6-[(7R,8R)-7,8-diphenyl-5-(piperidin-1-yl)-2-azabicyclo[3.2.2]nonan-2-yl]pyrimidine-2,4-diamine], the 50% inhibitory concentration (IC50) in data set [1] (setting [5]) was 51 ± 7 nM; in data set [2] (setting [6]), 1560 ± 643 nM; in data set [4] (setting [8]), 94 ± 4 nM; in data set [4] (setting [7]) it was 51 to 94 nM. The molecule further displayed an IC50 at 72 h in data set [3] of 9730 ± 661 nM.
As to `Nc1cc(N2CCC3(N4CCCC4)CC(c4ccccc4)C2C(c2ccccc2)C3)nc(N)n1` (racemic) [Compound 10, rac-6-[(7R,8R)-7,8-diphenyl-5-(pyrrolidin-1-yl)-2-azabicyclo[3.2.2]nonan-2-yl]pyrimidine-2,4-diamine], the figures for the concentration for half-maximal inhibition (IC50) in data set [1] (setting [5]), in data set [2] (setting [6]) and in data set [4] (setting [7]) were 79 ± 1 nM, 853 ± 16 nM and 216 ± 37 nM, respectively. This molecule also came in with a half-inhibitory concentration (IC50) at 72 h in data set [3] of 11260 ± 33 nM.
On to `Nc1nc(N)nc(Nc2ccc([As]3SCC(CO)S3)cc2)n1` (centres unmarked) [MEL, melarsoprol, reference compound], for which the IC50 in data set [2] is 10 nM. In addition, in data set [3], the half-inhibitory concentration (IC50) at 72 h stood at 7780 nM.
In the case of `Cc1cc(N2CCC3(N4CCCC4)C[C@H](c4ccccc4)C2[C@@H](c2ccccc2)C3)nc(Cl)n1` (racemic) [Compound 14, rac-(7R,8R)-2-(2-chloro-6-methylpyrimidin-4-yl)-7,8-diphenyl-5-(pyrrolidin-1-yl)-2-azabicyclo[3.2.2]nonane], the results for the IC50 in data set [1] (setting [5]), in data set [2] (setting [6]) and in data set [4] (setting [7]) were 1040 ± 302 nM, 1640 ± 22 nM and 366 ± 95 nM, respectively. For the same molecule, in data set [3], the half-inhibitory concentration (IC50) at 72 h came out at 9620 ± 1100 nM.
Turning to `Cc1cc(N2CC3C(c4ccccc4)CC(N4CCCCC4)(CC3c3ccccc3)C2)nc(N)n1` (racemic) [Compound 7], the half-inhibitory concentration (IC50) in data set [1] (setting [5]) was 24 ± 4 nM; in data set [2] (setting [6]) it was 573 ± 132 nM; in data set [4] (setting [8]) it was 51 ± 24 nM; in data set [4] (setting [7]) it was 51 to 94 nM. Also, it took 8000 ± 1890 nM to reach half-maximal inhibition in data set [3] (IC50 at 72 h).
For the molecule `Cc1cc(N2CC3C(c4ccccc4)CC(N4CCCC4)(CC3c3ccccc3)C2)nc(Cl)n1` (racemic) [Compound 16, rac-(7R,8R)-3-(2-chloro-6-methylpyrimidin-4-yl)-6,9-diphenyl-1-(pyrrolidin-1-yl)-3-azabicyclo[3.2.2]nonane], the figures for the IC50 in data set [1] (setting [5]), in data set [2] (setting [6]) and in data set [4] (setting [7]) were 281 ± 6 nM, 4310 ± 21 nM and 292 ± 21 nM, respectively. In addition, in data set [3], 12500 ± 1440 nM corresponded to half-maximal inhibition (IC50 at 72 h).
As for `CCN(CC)CCCC(C)Nc1ccnc2cc(Cl)ccc12` (centres unmarked) [CQ, chloroquine, reference compound], the IC50 was 3.9 nM in data set [1] (NF54, read-out: P. falciparum NF54 IC50) and 163 nM in data set [4] (Plasmodium falciparum, K1, read-out: P. falciparum K1 IC50). This molecule also had an IC50 at 72 h in data set [3] of 90900 nM.
As for `Cc1cc(N2CC3C(c4ccccc4)CC(N4CCCCC4)(CC3c3ccccc3)C2)nc(Cl)n1` (racemic) [Compound 15, rac-(7R,8R)-3-(2-chloro-6-methylpyrimidin-4-yl)-6,9-diphenyl-1-(piperidin-1-yl)-3-azabicyclo[3.2.2]nonane], the half-maximal inhibitory concentration (IC50) turned out to be 1490 ± 784 nM in data set [1] (setting [5]), 9510 ± 914 nM in data set [2] (setting [6]) and 2080 ± 430 nM in data set [4] (setting [7]). Moreover, half-maximal inhibition in data set [3] (IC50 at 72 h) required 27200 ± 11800 nM.
For `Cc1cc(N2CCC3(N4CCCC4)C[C@H](c4ccccc4)C2[C@@H](c2ccccc2)C3)nc(N2CCCC2)n1` (racemic) [Compound 18, rac-(7R,8R)-2-[6-methyl-2-(pyrrolidin-1-yl)pyrimidin-4-yl]-7,8-diphenyl-5-(pyrrolidin-1-yl)-2-azabicyclo[3.2.2]nonane], in that order: 136 ± 16 nM, 95 ± 32 nM, 59 ± 2 nM and 15000 ± 483 nM.
For the molecule `Nc1cc(N2CC3C(c4ccccc4)CC(N4CCCCC4)(CC3c3ccccc3)C2)nc(N)n1` (racemic) [Compound 11], the half-inhibitory concentration (IC50) in data set [1] (setting [5]) was determined as 23 ± 1 nM; in data set [2] (setting [6]), 201 ± 39 nM; in data set [4] (setting [7]), 87 ± 2 nM. The molecule also registered an IC50 at 72 h in data set [3] of 4330 ± 235 nM.
As to `Cc1cc(N2CCC3(N4CCCCC4)C[C@H](c4ccccc4)C2[C@@H](c2ccccc2)C3)nc(N2CCCC2)n1` (racemic) [Compound 17, rac-(7R,8R)-2-[6-methyl-2-(pyrrolidin-1-yl)pyrimidin-4-yl]-7,8-diphenyl-5-(piperidin-1-yl)-2-azabicyclo[3.2.2]nonane], the IC50 in data set [1] (setting [5]) turned out to be 617 ± 8 nM; in data set [2] (setting [6]), 575 ± 33 nM. The concentration for half-maximal inhibition (IC50) at 72 h in data set [3] amounted to 23200 ± 9930 nM.
Regarding `Cc1cc(N2CCC3(N4CCCCC4)CC(c4ccccc4)C2C(c2ccccc2)C3)nc(N)n1` (racemic) [Compound 5, rac-4-[(7R,8R)-7,8-diphenyl-5-(piperidin-1-yl)-2-azabicyclo[3.2.2]nonan-2-yl]-6-methylpyrimidin-2-amine], the IC50 amounted to 212 ± 12 nM in data set [1] (setting [5]), 3310 ± 235 nM in data set [2] (setting [6]) and 140 ± 33 nM in data set [4] (setting [7]). The IC50 at 72 h in data set [3] is 10600 ± 1940 nM.
With `Cc1cc(N2CCC3(N4CCCC4)CC(c4ccccc4)C2C(c2ccccc2)C3)nc(N)n1` (racemic) [Compound 6, rac-4-[(7R,8R)-7,8-diphenyl-5-(pyrrolidin-1-yl)-2-azabicyclo[3.2.2]nonan-2-yl]-6-methylpyrimidin-2-amine], the IC50 worked out at 88 ± 57 nM in data set [1] (setting [5]) and 161 nM in data set [2] (setting [6]). In data set [3], this molecule showed a concentration for half-maximal inhibition (IC50) at 72 h of 12500 ± 3310 nM.
For the molecule `Cc1cc(N2CC3C(c4ccccc4)CC(N4CCCC4)(CC3c3ccccc3)C2)nc(N2CCCCC2)n1` (racemic) [Compound 24, rac-(7R,8R)-3-[6-methyl-2-(piperidin-1-yl)pyrimidin-4-yl]-6,9-diphenyl-1-(pyrrolidin-1-yl)-3-azabicyclo[3.2.2]nonane], the IC50 in data set [1] (setting [5]) was found to be 3790 ± 163 nM; in data set [2] (setting [6]), 1450 ± 116 nM. This molecule displayed an IC50 at 72 h in data set [3] of 61800 ± 27900 nM.
For `Cc1cc(N2CCC3(N4CCCC4)C[C@H](c4ccccc4)C2[C@@H](c2ccccc2)C3)nc(N2CCCCC2)n1` (racemic) [Compound 22, rac-(7R,8R)-2-[6-methyl-2-(piperidin-1-yl)pyrimidin-4-yl]-7,8-diphenyl-5-(pyrrolidin-1-yl)-2-azabicyclo[3.2.2]nonane], in that order: 406 ± 15 nM, 107 ± 49 nM and 6730 ± 3080 nM.
